Experimental data taken from patent US7514582B2, “2′-substituted 1,1′-biphenyl-2-carboxamides, processes for their preparation, their use as medicaments, and pharmaceutical preparations comprising them” (Sanofi-Aventis Deutschland GmbH, priority 1999, dated 2009).

Biological target: T1, Kv1.5 channels from humans (Homo sapiens, UniProt P22460)
T1 construct: expressed in transfected cells; host or cells: Xenopus laevis oocytes injected with in vitro synthesized RNA
Experiment: Kv1.5 currents in Xenopus oocytes, two-microelectrode voltage clamp
Format: cell-based
Protocol: Kv1.5 channels from humans were expressed in Xenopus oocytes. For this, oocytes from Xenopus laevis were first isolated and defolliculated. RNA encoding Kv1.5 synthesized in vitro was then injected into these oocytes. After Kv1.5 protein expression for 1-7days, Kv1.5 currents were measured on the oocytes using the two-microelectrode voltage clamp technique. The Kv1.5 channels were in this case as a rule activated using voltage jumps to 0 mV and 40 mV lasting 500 ms. The bath was rinsed with a solution of the following composition: NaCl 96 mM, KCl 2 mM, CaCl2 1.8 mM, MgCl2 1 mM, HEPES 5 mM (titrated with NaOH to pH 7.4). These experiments were carried out at room temperature. The following were employed for data acquisition and analysis: Genedamp amplifier (Axon Instruments, Foster City, USA) and MacLab D/A converter and software (AD Instruments, Castle Hill, Australia). The substances according to the invention were tested by adding them in different concentrations to the bath solution. The effects of the substances were calculated as the percentage inhibition of the Kv1.5 control current which was obtained when no substance was added to the solution. The data were then extrapolated using the Hill equation in order to determine the inhibitory concentration IC50 for the respective substances.

T1 sequence (P22460 whole entry): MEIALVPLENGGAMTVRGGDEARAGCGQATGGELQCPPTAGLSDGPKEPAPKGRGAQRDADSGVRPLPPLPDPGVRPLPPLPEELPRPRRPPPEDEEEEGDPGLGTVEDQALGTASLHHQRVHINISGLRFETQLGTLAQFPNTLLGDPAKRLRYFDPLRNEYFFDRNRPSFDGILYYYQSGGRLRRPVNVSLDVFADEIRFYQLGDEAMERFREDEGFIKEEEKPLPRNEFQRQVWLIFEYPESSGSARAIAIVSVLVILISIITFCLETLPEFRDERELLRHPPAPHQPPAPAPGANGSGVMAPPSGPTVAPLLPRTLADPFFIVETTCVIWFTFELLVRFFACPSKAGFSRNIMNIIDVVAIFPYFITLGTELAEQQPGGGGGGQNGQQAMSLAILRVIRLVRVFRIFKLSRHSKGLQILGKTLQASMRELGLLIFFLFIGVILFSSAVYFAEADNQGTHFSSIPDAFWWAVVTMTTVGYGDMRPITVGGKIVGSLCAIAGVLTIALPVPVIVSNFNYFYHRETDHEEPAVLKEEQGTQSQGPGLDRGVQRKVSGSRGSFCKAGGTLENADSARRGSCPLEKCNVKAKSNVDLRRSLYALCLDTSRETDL

IC50	Compound
400 nM	CC(OC(=O)NCc1ccccc1-c1ccccc1C(=O)NCCc1ccccn1)c1ccc(C(F)(F)F)cc1 (racemic) [1 f]
6100 nM	O=C(NCc1ccccc1-c1ccccc1C(=O)NCCc1ccccc1)OCc1ccc(C(F)(F)F)cc1 [1 a]
1000 nM	O=C(NCc1ccccc1-c1ccccc1C(=O)NCCc1ccccn1)OCc1ccc(C(F)(F)F)cc1 [1 d]
500 nM	O=C(NCc1ccccc1-c1ccccc1C(=O)NCCc1ccccn1)OCc1ccc(F)cc1 [1 e]
400 nM	C[C@H](OC(=O)NCc1ccccc1-c1ccccc1C(=O)NCCc1ccccn1)c1ccc(C(F)(F)F)cc1 [1 g]
4300 nM	C[C@@H](OC(=O)NCc1ccccc1-c1ccccc1C(=O)NCCc1ccccn1)c1ccc(C(F)(F)F)cc1 [1 h]
1700 nM	O=C(NCc1ccccc1-c1ccccc1C(=O)NCCc1ccccn1)OCCCC(F)(F)F [1 i]
1400 nM	CC(OC(=O)NCc1ccccc1-c1ccccc1C(=O)NCCc1ccccn1)c1ccccc1C(F)(F)F (centres unmarked) [1 l]
700 nM	CC(OC(=O)NCc1ccccc1-c1ccccc1C(=O)NCCc1ccccn1)c1cccc(C(F)(F)F)c1 (centres unmarked) [1 m]
1400 nM	CC(OC(=O)NCc1ccccc1-c1ccccc1C(=O)NCCc1ccccn1)c1c(F)cccc1F (centres unmarked) [1 n]
800 nM	CCC[C@H](OC(=O)NCc1ccccc1-c1ccccc1C(=O)NCCc1ccccn1)c1ccccc1 [1 r]

Continued, compound first:

Compound	IC50
O=C(NCc1ccccc1-c1ccccc1C(=O)NCCc1ccccc1)OCc1ccccc1 [1 b]	3300 nM
C[C@@H](OC(=O)NCc1ccccc1-c1ccccc1C(=O)NCc1ccc(F)cc1F)c1ccccc1 [1 o]	4400 nM
O=C(NCc1ccccc1-c1ccccc1C(=O)NCc1ccc(F)cc1F)OCc1ccc(F)cc1 [1 s]	1700 nM
O=C(NCc1ccccc1-c1ccccc1C(=O)NCc1ccc(F)cc1F)OCCCC(F)(F)F [1 t]	1300 nM
O=C(NCc1ccccc1-c1ccccc1C(=O)NCc1ccccn1)OCc1ccccc1 [1 u]	800 nM
CCCCOC(=O)NCc1ccccc1-c1ccccc1C(=O)NCCC(C)C [2 d]	1700 nM
CC(C)CCNC(=O)c1ccccc1-c1ccccc1CNC(=O)OCc1ccccc1Cl [2 e]	3400 nM
COC(=O)c1ccc(OC(=O)NCc2ccccc2-c2ccccc2C(=O)NCCC(C)C)cc1 [2 h]	2500 nM
CC(C)(C)COC(=O)NCc1ccccc1-c1ccccc1C(=O)NCCc1ccccc1 [2 i]	3300 nM
O=C(NCc1ccccc1-c1ccccc1C(=O)NCc1ccc(F)cc1F)Oc1ccc(F)cc1 [2 j]	2500 nM
O=C(NCc1ccccc1-c1ccccc1C(=O)NCc1ccc(F)cc1F)Oc1ccccc1 [2 k]	3800 nM
O=C(NCCc1ccccc1)c1ccccc1-c1ccccc1CNS(=O)(=O)c1ccccc1 [3 d]	1700 nM
O=C(NCc1ccccc1)c1ccccc1-c1ccccc1CNS(=O)(=O)c1cccc(F)c1 [3 k]	2400 nM
O=C(NCCc1ccccn1)c1ccccc1-c1ccccc1CNS(=O)(=O)c1ccccc1 [3 p]	1900 nM
O=C(NCCc1ccccn1)c1ccccc1-c1ccccc1CNS(=O)(=O)c1cccc(F)c1 [3 r]	1500 nM
COc1ccc(CC(=O)NCc2ccccc2-c2ccccc2C(=O)NCCc2ccccn2)cc1 [4 d]	1800 nM
COc1ccc(CC(=O)NCc2ccccc2-c2ccccc2C(=O)Nc2ccc(OC)cc2)cc1 [4 g]	3400 nM
COc1ccc(NC(=O)c2ccccc2-c2ccccc2CNC(=O)CCc2ccccc2)cc1 [4 h]	1800 nM
COc1ccc(CC(=O)NCc2ccccc2-c2ccccc2C(=O)NCCc2ccncc2)cc1 [4 j]	7100 nM
CCOc1ccc(CCC(=O)NCc2ccccc2-c2ccccc2C(=O)NCCc2ccccn2)cc1 [4 k]	2200 nM
CC(CC(=O)NCc1ccccc1-c1ccccc1C(=O)NCCc1ccccn1)c1ccccc1 (centres unmarked) [4 l]	800 nM
O=C(NCc1ccccc1)NCc1ccccc1-c1ccccc1C(=O)NCCc1ccccn1 [5 c]	7800 nM
C[C@H](NC(=O)NCc1ccccc1-c1ccccc1C(=O)NCCc1ccccn1)c1ccccc1 [5 d]	1900 nM
C[C@@H](NC(=O)NCc1ccccc1-c1ccccc1C(=O)NCCc1ccccn1)c1ccccc1 [5 e]	7200 nM
